Experimental findings from ChEMBL document CHEMBL5046240, “Design, synthesis, and evaluation of potent RIPK1 inhibitors with in vivo anti-inflammatory activity” (Eur J Med Chem, 2022) are described below.

Structures are written as SMILES. Active and inactive are the calls of the source. No cut-off for these calls is given here.

The nature of data set [1]: Efflux ratio of permeability across basolateral to apical side over apical to basolateral side in human Caco-2 cells by LC-MS/MS analysis. The data set is classed as ADME, cell-based. A general note: Caco-2 cells form a polarised layer with tight junctions and transporters.
Data set [2] deals with Voltage-gated inwardly rectifying potassium channel KCNH2 (Homo sapiens, UniProt Q12809). Kind of data set: Inhibition of hERG expressed in CHO cells at -80 mV holding potential measured after 4mins by automated patch-clamp assay. The data set is classed as toxicity, cell-based.
Voltage-gated inwardly rectifying potassium channel KCNH2, sequence (Q12809 whole entry): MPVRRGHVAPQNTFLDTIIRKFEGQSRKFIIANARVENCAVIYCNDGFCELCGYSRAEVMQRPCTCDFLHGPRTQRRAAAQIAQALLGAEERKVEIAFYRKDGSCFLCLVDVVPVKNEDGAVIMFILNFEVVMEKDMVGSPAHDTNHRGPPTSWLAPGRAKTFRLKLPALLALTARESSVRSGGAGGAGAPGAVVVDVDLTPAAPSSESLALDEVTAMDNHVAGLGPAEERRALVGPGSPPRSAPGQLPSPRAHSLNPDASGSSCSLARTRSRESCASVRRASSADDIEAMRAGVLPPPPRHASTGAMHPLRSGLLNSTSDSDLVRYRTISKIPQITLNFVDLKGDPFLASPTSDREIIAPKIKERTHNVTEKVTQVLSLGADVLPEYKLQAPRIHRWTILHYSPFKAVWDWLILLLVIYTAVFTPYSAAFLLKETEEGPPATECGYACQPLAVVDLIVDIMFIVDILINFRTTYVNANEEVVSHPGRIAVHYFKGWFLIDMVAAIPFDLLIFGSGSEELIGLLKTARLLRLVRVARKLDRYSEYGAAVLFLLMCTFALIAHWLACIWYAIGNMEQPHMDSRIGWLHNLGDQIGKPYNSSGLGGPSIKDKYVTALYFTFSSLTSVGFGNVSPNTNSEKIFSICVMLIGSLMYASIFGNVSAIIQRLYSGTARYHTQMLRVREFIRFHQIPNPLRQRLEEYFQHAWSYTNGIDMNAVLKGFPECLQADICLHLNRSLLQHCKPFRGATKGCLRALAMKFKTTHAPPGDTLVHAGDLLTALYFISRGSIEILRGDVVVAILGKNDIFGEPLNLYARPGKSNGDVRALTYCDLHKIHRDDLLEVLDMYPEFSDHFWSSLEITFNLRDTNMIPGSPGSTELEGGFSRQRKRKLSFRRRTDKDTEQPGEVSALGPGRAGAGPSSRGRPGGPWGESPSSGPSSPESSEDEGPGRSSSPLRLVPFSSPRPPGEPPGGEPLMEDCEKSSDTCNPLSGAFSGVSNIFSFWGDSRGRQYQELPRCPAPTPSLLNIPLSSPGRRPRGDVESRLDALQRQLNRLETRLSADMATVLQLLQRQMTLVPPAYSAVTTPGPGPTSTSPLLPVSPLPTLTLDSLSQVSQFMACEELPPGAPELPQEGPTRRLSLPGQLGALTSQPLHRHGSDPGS
The target in a further data set is T1, CYP1A2 (Homo sapiens, UniProt P05177).
T1 sequence (P05177 whole entry): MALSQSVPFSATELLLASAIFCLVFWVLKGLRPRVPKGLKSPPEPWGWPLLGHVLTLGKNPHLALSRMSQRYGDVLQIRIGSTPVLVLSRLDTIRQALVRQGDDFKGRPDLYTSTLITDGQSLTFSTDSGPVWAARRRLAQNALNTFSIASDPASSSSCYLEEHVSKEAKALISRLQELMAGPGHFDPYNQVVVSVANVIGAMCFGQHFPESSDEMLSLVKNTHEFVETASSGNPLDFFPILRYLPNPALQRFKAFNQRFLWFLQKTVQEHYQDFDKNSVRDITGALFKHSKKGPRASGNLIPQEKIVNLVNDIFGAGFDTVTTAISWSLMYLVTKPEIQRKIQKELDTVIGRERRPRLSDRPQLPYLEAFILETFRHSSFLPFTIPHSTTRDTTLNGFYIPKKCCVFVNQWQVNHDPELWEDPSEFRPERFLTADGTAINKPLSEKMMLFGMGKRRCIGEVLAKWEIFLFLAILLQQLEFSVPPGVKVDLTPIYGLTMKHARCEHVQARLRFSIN
In words: Inhibition of CYP1A2 (unknown origin) using Phenacetin as cocktail probe substrate at 10 uM preincubated for 20 mins followed by substrate addition and measured after 20 mins by LC-MS/MS analysis relative to control. The data set is classed as ADME. Particulars: time 40 min.

Data set [3] in a line: Protein binding in rat plasma by LC-MS/MS based equilibrium dialysis method. It counts as ADME, cell-free. Particulars: read-out: PPB (converted).
A short description of data set [4]: Permeability across apical to basolateral side in human Caco-2 cells at pH 7.4 by LC-MS/MS analysis. It counts as ADME, cell-based. Particulars: Caco-2, pH 7.4, read-out: permeability.
The nature of data set [5]: Metabolic stability in rat liver microsomes assessed as half life by LC-MS/MS analysis. It counts as ADME, Microsome. For orientation: Liver microsomes are a subcellular fraction often used to study metabolism.
Data set [6] can be described thus: Metabolic stability in human liver microsomes assessed as intrinsic clearance by LC-MS/MS analysis. Particulars: read-out: CLH. The data set is classed as ADME, Microsome.
The nature of data set [7]: Metabolic stability in rat liver microsomes assessed as intrinsic clearance by LC-MS/MS analysis. It counts as ADME, Microsome. The settings on record: read-out: CLH.
The nature of data set [8]: Clearance in Sprague-Dawley rat at 2 mg/kg, iv measured upto 24 hrs by LC-MS/MS analysis. It counts as ADME, organism-based. The settings on record: in vivo.
Data set [9] is described as follows: Volume of distribution at steady state in Sprague-Dawley rat at 2 mg/kg, iv measured upto 24 hrs by LC-MS/MS analysis. It counts as ADME, organism-based. Particulars: in vivo, read-out: Vdss.
The target of data set [10] is T2, Receptor-interacting serine/threonine-protein kinase 1 (Homo sapiens, UniProt Q13546).
T2 sequence (Q13546 whole entry): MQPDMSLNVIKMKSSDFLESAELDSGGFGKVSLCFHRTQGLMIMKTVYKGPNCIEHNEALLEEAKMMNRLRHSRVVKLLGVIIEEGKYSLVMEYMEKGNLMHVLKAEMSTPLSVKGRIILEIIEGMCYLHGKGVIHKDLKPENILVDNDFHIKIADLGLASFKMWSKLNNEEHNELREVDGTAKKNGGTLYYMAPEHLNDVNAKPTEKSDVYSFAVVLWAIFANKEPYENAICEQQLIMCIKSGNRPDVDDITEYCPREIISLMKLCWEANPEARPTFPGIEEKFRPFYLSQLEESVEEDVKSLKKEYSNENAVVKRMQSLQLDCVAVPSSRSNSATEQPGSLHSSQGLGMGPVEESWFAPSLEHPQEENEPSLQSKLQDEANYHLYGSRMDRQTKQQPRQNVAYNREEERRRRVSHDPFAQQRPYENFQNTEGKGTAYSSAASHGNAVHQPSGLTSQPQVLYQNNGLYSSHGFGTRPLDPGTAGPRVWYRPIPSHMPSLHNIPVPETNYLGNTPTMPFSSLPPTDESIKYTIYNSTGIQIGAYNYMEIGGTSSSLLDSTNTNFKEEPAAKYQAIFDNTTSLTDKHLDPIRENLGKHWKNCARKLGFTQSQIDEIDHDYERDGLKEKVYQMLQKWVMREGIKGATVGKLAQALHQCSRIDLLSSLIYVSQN
In words: Inhibition of RIPK1 (unknown origin) using MBP and ATP as substrate preincubated for 10 mins followed by substrate addition and measured after 120 mins by ADP-Glo luminescence assay. Background: In ADP-Glo the light output rises with the ADP produced.

In data set [11] the test system is Mus musculus. In words: Anti-necroptosis activity against TNFalpha-induced C57BL/6J mouse systemic inflammatory response syndrome model assessed as reduction in lethal shock at 3 mg/kg, ip pretreated for 15 mins and measured upto 72 hrs after TNFalpha stimulation. It counts as functional, organism-based.
The subject of data set [12] is Mus musculus. Kind of data set: Antiinflammatory activity in TNFalpha-induced C57BL/6J mouse systemic inflammatory response syndrome model assessed as reduction in IL-6 production in serum at 3 mg/kg, ip pretreated for 15 mins and measured upto 72 hrs after TNFalpha stimulation. It counts as functional, organism-based.
Data set [13] can be described thus: Toxicity in C57BL/6J mouse assessed as effect on lung morphological changes at 5 to 25 mg/kg, po administered daily for 7 days by H and E staining method. It counts as organism-based. The settings on record: in vivo, 168 h, dose 5-25 mg/kg, time 7 day.
The nature of data set [14]: Half life in Sprague-Dawley rat at 10 mg/kg , po measured upto 24 hrs by LC-MS/MS analysis. It counts as ADME, organism-based. Particulars: in vivo.
The subject of data set [15] is Mus musculus. Kind of data set: Anti-necroptosis activity against TNFalpha-induced C57BL/6J mouse systemic inflammatory response syndrome model assessed as reduction in hypothermia at 3 mg/kg, ip pretreated for 15 mins and measured upto 72 hrs after TNFalpha stimulation. The data set is classed as functional, organism-based.
Data set [16] can be described thus: Toxicity in C57BL/6J mouse assessed as effect on behavioral change at 5 to 25 mg/kg, po administered daily for 7 days. The settings on record: in vivo, 168 h, dose 5-25 mg/kg, time 7 day. The data set is classed as organism-based.
A short description of data set [17]: Fraction unbound clearance in Sprague-Dawley rat. The data set is classed as ADME.

Take `Cc1ncc(-c2ccc3nc(NC(=O)C4CC4)sc3c2)cc1NC(=O)OC1CCOCC1`: in data set [1], the efflux ratio is 1.1. Further, the IC50 in data set [2] was greater than 30000 nM; in [10] it was 67 nM. Besides, the inhibition at 20 min, 10 µM on CYP1A2 turned out to be 16%. Moreover, the fraction unbound in [3] was 0.018. In addition, in data set [4], the Papp A→B amounted to 33 ×10⁻⁶ cm/s. Also, the half-life in data set [5] was 0.65 h; in data set [14], 1.7 h. Besides, the CLint scaled in [6] came to 49 mL/min/kg; in data set [7] it was 159 mL/min/kg. The molecule also showed a clearance in data set [8] of 33 mL/min/kg. Besides, the Vd in [9] was 2.4 L/kg. The result with Mus musculus [11], in the data set with Mus musculus [12] and in the data set with Mus musculus [15] was Active. The Activity result in data set [13] and in [16] was “Non-Toxic” throughout. Besides, in data set [17], the CL free worked out at 183 mL/min/kg.

The term efflux ratio denotes the permeability from basolateral to apical divided by that in the opposite direction, in the common usage. For orientation: IC50 means the midpoint of a concentration-inhibition curve. The low end stands for inhibition by little substance, the high end for a need for much substance. The term inhibition denotes how much of the control response was suppressed. Broadly, the half-life is how long it takes for the measured level to halve. As a reminder, the clearance is the rate of elimination divided by the concentration. A higher clearance goes with a high capacity for elimination.
